Data published in the METLIN SMRT retention time set (Domingo-Almenara et al. 2019).

Experiment: gradient 5% acetonitrile 3 min, to 50% in 2 min, to 85% in 15 min, held 3 min, 100 µL/min
Conditions: column: Zorbax Extend-C18 2.1 x 50 mm; eluents: water / acetonitrile, 0.1% formic acid
In short: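 Mixtures of ~100 pure standards were chromatographed on a Zorbax Extend-C18 column (2.1 × 50 mm, 1.8 μm) at 100 μL/min using water and acetonitrile, each with 0.1% formic acid. Detection used a quadrupole time-of-flight mass spectrometer in positive and negative ionization mode, and data collection spanned 3 months. Retention time was obtained from adduct peaks picked computationally and each checked manually.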

Work on `CC(C)n1nc(CNC(=O)C2CCN(S(=O)(=O)c3ccccc3)CC2)c2ccccc21` yielded an RP-LC retention time of 918 s.
`Cc1cccc(-c2csc3c(=O)n(Cc4ccc(N5CCCC5=O)cc4)cnc23)c1` gave an RP-LC retention time of 937 s.
In the case of `Cc1nn(CC(=O)NCC(C)C)c(=O)c2nc(-c3ccccc3)sc12`, the RP-LC retention time is reported as 830 s.
`Cn1c(=O)c2nscc2n(CC(=O)NC2CCCCC2)c1=O` showed an RP-LC retention time of 664 s.
Work on `CCC(C)(C)NC(=O)C1CCCN(S(=O)(=O)c2c[nH]c(C(=O)N3CCCCCC3)c2)C1` (stereo not given) yielded an RP-LC retention time of 871 s.
Work on `O=c1c(=O)n(-c2ccccc2)ccn1Cc1nc(-c2ccccc2)no1` yielded an RP-LC retention time of 777 s.
For `CN1C(=O)C2CCCCN2c2ccc(C(=O)N3CCN(C(=O)c4ccco4)CC3)cc21` (stereo not given), the RP-LC retention time was 701 s.
In the case of `CC(C)N1CCN(S(=O)(=O)c2cc(-c3nnc(C4CCCC4)o3)co2)CC1`, the RP-LC retention time is reported as 641 s.
Work on `COc1nn(C)cc1C(=O)NCC(=O)Nc1cccc2nsnc12` yielded an RP-LC retention time of 636 s.
Work on `CCC(C)NC(=O)N1CCN(Cc2nc3cccnc3n2-c2ccc(OC)cc2)CC1` (stereo not given) yielded an RP-LC retention time of 621 s.
Compound `O=C(NCCc1csc(-c2ccccc2)n1)[C@H]1CCCN1C(=O)C1CCCC1` has an RP-LC retention time of 814 s.
In the case of `O=C(NCc1ccccc1)C1CCCN(C(=O)C2Sc3ccccc3NC2=O)C1` (stereo not given), the RP-LC retention time is reported as 746 s.
With `Cc1cc(C)n(Cc2nc(-c3ccc(NC(=O)CCc4ccccc4)cc3)oc2C)n1` the RP-LC retention time was 944 s.
`COc1ccc(OC)c(NS(=O)(=O)c2c(C)sc(C)c2-c2cc(C(F)(F)F)on2)c1` showed an RP-LC retention time of 1150 s.
For `COc1ccc(NS(=O)(=O)c2cc3n(c2)CCCN(C(C)C)C3=O)cc1Cl`, the RP-LC retention time was 773 s.
For `Cc1noc(C)c1CCNC(=O)c1ccc2ccnc(N3CCN(c4ccc(F)cc4)CC3)c2c1`, the RP-LC retention time was 731 s.
In the case of `CCOc1ccccc1C(=O)n1nc(C)c(S(=O)(=O)N2CCCCC2)c1C`, the RP-LC retention time is reported as 1160 s.
`Cc1nnsc1C(=O)Nc1nnc(SCC(=O)NCc2ccco2)s1` gave an RP-LC retention time of 692 s.
Work on `O=C(CN1CCN(c2ccc(F)c(F)c2)C1=O)NC1CCSC1=O` (stereo not given) yielded an RP-LC retention time of 678 s.
For `Cc1c(CCN)ccc2c1[nH]c1ccccc12`, the RP-LC retention time was 697 s.
Compound `COc1ccc(N2CCN(c3cc(SCC(=O)NC(C)CCc4ccccc4)ncn3)CC2)cc1` (stereo not given) has an RP-LC retention time of 1310 s.
`Cc1ccnc(N2CCCC(C(=O)NCCc3ccccc3Cl)C2)n1` (stereo not given) showed an RP-LC retention time of 779 s.
For `O=c1c2c(CO)c(-c3ccccc3)nn2ccn1CCOc1ccccc1`, the RP-LC retention time was 752 s.
In the case of `COc1ccc(NC(=O)N2CCC(n3c(-c4ccoc4)nc4cccnc43)C2)cc1` (stereo not given), the RP-LC retention time is reported as 698 s.
`CN1C(=O)CSc2cnn(CC(=O)N3CCN(c4ccc(F)cc4)CC3)c(=O)c21` showed an RP-LC retention time of 706 s.
`COc1ccccc1-c1nc(Cn2nnc(-c3nc(-c4ccc(C)cc4)no3)c2C)c(C)o1` showed an RP-LC retention time of 1170 s.
For `O=C(c1ccoc1)N1CCC(Oc2nccnc2N2CCc3ccccc32)C1` (stereo not given), the RP-LC retention time was 880 s.
Compound `Cc1[nH]c(=O)[nH]c(=O)c1/C=C/C(=O)NC(CO)CC(C)C` (stereo not given) has an RP-LC retention time of 592 s.
For `CCn1c(=O)oc2cc(-c3noc(-c4ccc(OC)c(OC)c4)n3)ccc21`, the RP-LC retention time was 990 s.
For `O=C(NCCN1CCOCC1)c1c2c(nc3ccccc13)C(=O)N(C1CCCCC1)C2`, the RP-LC retention time was 599 s.
`CC(C)CC(=O)N1C[C@H](c2nc(-c3ccccc3)no2)[C@@H](C)C1` showed an RP-LC retention time of 951 s.
`Cc1ccc(-n2c(=O)c3c(cc(C)n3C)n(CC(=O)Nc3ccccc3C)c2=O)cc1` gave an RP-LC retention time of 846 s.
For `Cc1nc2ccc(Cl)cn2c(=O)c1NC(=O)c1cccs1`, the RP-LC retention time was 620 s.
`Cn1cc(C2=C(c3cn(CCCSC(=N)N)c4ccccc34)C(=O)NC2=O)c2ccccc21` gave an RP-LC retention time of 767 s.
Compound `CCC(C)Oc1nc2c(c(=O)n(C)c(=O)n2C)n1C` (stereo not given) has an RP-LC retention time of 865 s.
`CCCC(=O)N1CCC(c2nc(CCOCC3CC3)no2)C1` (stereo not given) showed an RP-LC retention time of 729 s.
In the case of `CC12CC(NC(=O)N1c1cccc(C(=O)NCc3ccccn3)c1)c1cc(Cl)ccc1O2` (stereo not given), the RP-LC retention time is reported as 647 s.
Compound `O=C(NCCc1c[nH]c2ccccc12)c1nnc2n(c1=O)CCN2c1ccc(F)cc1` has an RP-LC retention time of 692 s.
In the case of `Cc1ccc(C)c(-c2cc(C(=O)N3CCN(C)CC3)[nH]n2)c1`, the RP-LC retention time is reported as 621 s.
Compound `Cc1ccc2[nH]c(=O)c(CCC(=O)NCCN3CCOCC3)cc2c1` has an RP-LC retention time of 577 s.
In the case of `Cc1ccc2nc3c(c(C(=O)NC(C)C)c2c1)CCCC3`, the RP-LC retention time is reported as 618 s.
Work on `Cc1noc(C)c1CNC(=O)c1nccc2ccccc12` yielded an RP-LC retention time of 753 s.
In the case of `O=C(NCc1cccnc1)C1CCN(Cc2cc3ccccc3n2Cc2ccccc2)CC1`, the RP-LC retention time is reported as 624 s.
`CCOc1ccc(NC(=O)COc2cc(C)nc(N3CCN(c4ccccc4)CC3)n2)cc1` gave an RP-LC retention time of 839 s.
Compound `Cn1nnnc1NCc1ccc(-c2cccc(Cl)c2)o1` has an RP-LC retention time of 826 s.
`COCCCNc1c(-c2ccc(C)cc2)nc2sc(C(=O)N(C)C)c(C)n12` gave an RP-LC retention time of 732 s.
Compound `CCCONC(=O)Nc1ccccc1[N+](=O)[O-]` has an RP-LC retention time of 787 s.
For `Cc1nn(-c2nc(-c3ccccc3)cs2)c(C)c1CC(=O)Nc1ccccc1Cl`, the RP-LC retention time was 1220 s.
With `Cc1cccc(CC(=O)N2C[C@@H]3C[C@H]2C[C@@H]3NS(C)(=O)=O)c1` the RP-LC retention time was 673 s.
Compound `O=C(CC(F)(F)F)N1CCCC(CCc2nnc(-c3cnccn3)o2)C1` (stereo not given) has an RP-LC retention time of 717 s.
`CCN1CCn2cc(S(=O)(=O)N3CCN(c4ccccc4Cl)CC3)cc2C1=O` gave an RP-LC retention time of 892 s.
With `COc1ccccc1Nc1c(-c2cccc(O)c2)nc2cnccn12` the RP-LC retention time was 681 s.
Work on `Cc1cc(C)cc(NC(=O)C2CCCN(c3nccnc3Sc3ccccc3)C2)c1` (stereo not given) yielded an RP-LC retention time of 1200 s.
In the case of `CC(C)CNC(=O)Cc1nnc(-c2ccccc2)o1`, the RP-LC retention time is reported as 718 s.
With `CCCc1c(C(=O)OCC)cnc2nc(-c3ccccc3)nn12` the RP-LC retention time was 1120 s.
In the case of `CCOc1ccc(NC(=O)N2CCC(CN3CCCC(C)C3)CC2)cc1` (stereo not given), the RP-LC retention time is reported as 639 s.
For `Cc1ccccc1Nc1nc(N)nc(CN2CCN(c3ccccn3)CC2)n1`, the RP-LC retention time was 568 s.
`COc1ccc(-c2csc(NC(=O)CS(=O)(=O)c3ccc(Cl)cc3)n2)cc1` gave an RP-LC retention time of 1010 s.
Work on `COc1cccc(-c2nnc3sc(CN4CCc5ccccc5C4)cn23)c1` yielded an RP-LC retention time of 582 s.
Compound `CCn1ccc2sc(C)c(C(=O)NCc3ccc(OC)c(OC)c3)c2c1=O` has an RP-LC retention time of 716 s.
`COc1cccc(OC)c1C(=O)Nc1ccc2c(c1)CCCN2C(=O)C1CC1` gave an RP-LC retention time of 722 s.
Work on `CCc1nn2c(CNC(=O)c3ccccc3Br)c(C)nc2s1` yielded an RP-LC retention time of 636 s.
For `CCn1ncn2cc(S(=O)(=O)Nc3cc(C)ccc3C)cc2c1=O`, the RP-LC retention time was 937 s.
Compound `O=C(NC1CC1)c1ccc(OCC2CCCN2C(=O)C2CCC2)cc1` (stereo not given) has an RP-LC retention time of 741 s.
`O=C(N[C@@H]1CN(C2CCOCC2)C[C@H]1CO)c1ccc2c(c1)OCO2` showed an RP-LC retention time of 566 s.
In the case of `CS(=O)(=O)N1CC(c2noc(-c3cccnc3)n2)C2(CCOCC2)C1` (stereo not given), the RP-LC retention time is reported as 660 s.
`Clc1ccc(-c2csc(Nc3ccccc3)n2)cc1Cl` showed an RP-LC retention time of 1300 s.
Work on `Cc1nc(-c2cn(C(C)C)c3ncccc23)sc1C(=O)Nc1ccc(F)cc1` yielded an RP-LC retention time of 947 s.
In the case of `CC(C)(C)c1csc(-c2csc(S(=O)(=O)NC3CCCCC3)c2)n1`, the RP-LC retention time is reported as 1320 s.
For `CCn1ccc2sc(C)c(C(=O)NCc3c(C)cc(C)cc3C)c2c1=O`, the RP-LC retention time was 982 s.
Compound `CCC(=O)N1CCc2sc(C(=O)NCc3ccc(F)cc3)cc2C1` has an RP-LC retention time of 750 s.
With `Cc1cccc(NC(=O)NCCn2c(C(F)(F)F)nc3cccnc32)c1` the RP-LC retention time was 761 s.
For `COC(=O)c1ncn2c1C(=O)N(Cc1cccc(C)c1)C(C)(C(=O)NCc1ccccc1)C2` (stereo not given), the RP-LC retention time was 759 s.
Compound `CC(C)N1C(=O)c2cccnc2Sc2cc(NC(=O)c3cccc(F)c3)ccc21` has an RP-LC retention time of 901 s.
For `COc1cc(=O)c(C(=O)Nc2cccc(SC)c2)nn1-c1cccc(F)c1`, the RP-LC retention time was 805 s.
Compound `Cc1ccc(-c2cc(C(=O)Nc3ccc4c(c3)CCC(=O)N4)c3ccccc3n2)cc1C` has an RP-LC retention time of 949 s.
`CCc1nc(OCC(=O)NCc2ccc(C)cc2)c2c(C)c(C)oc2n1` showed an RP-LC retention time of 999 s.
`CCCS(=O)(=O)c1nc2ccc(NS(=O)(=O)c3ccc(OC)c(OC)c3)cc2s1` showed an RP-LC retention time of 853 s.
For `Brc1ccc(-c2ccc(CNCc3ccc4c(c3)OCO4)o2)cc1`, the RP-LC retention time was 776 s.
Work on `CCOC(=O)C1=C(C)NC2=C(C(=O)c3ccccc32)C1c1ccccc1OC` (stereo not given) yielded an RP-LC retention time of 950 s.
In the case of `CCOc1ccccc1-c1noc(Cn2c(=O)n(-c3ccccc3F)c(=O)c3sccc32)n1`, the RP-LC retention time is reported as 982 s.
Work on `CCOC(=O)c1[nH]c(C)c(C(=O)C(C)N(C(=O)c2cccc(F)c2)C2CC2)c1C` (stereo not given) yielded an RP-LC retention time of 988 s.
Compound `O=S(=O)(c1ccc(Cl)cc1)N1CCc2nc(-c3ccc(F)cc3)ncc2C1` has an RP-LC retention time of 1150 s.
`O=C(c1cnccn1)N1CCCn2nc(-c3cccs3)cc2C1` showed an RP-LC retention time of 689 s.
For `COc1cccc(S(=O)(=O)N2CCC(n3c(C)cnc3C3CC3)C2)c1` (stereo not given), the RP-LC retention time was 587 s.
In the case of `Cc1ccc(C)c(N2CCN(C(=O)C3CCN(C(=O)C4Sc5ccccc5NC4=O)CC3)CC2)c1` (stereo not given), the RP-LC retention time is reported as 944 s.
For `Cc1ccc2c(C(=O)NCC(C)C)cc(NC(=O)C3CCC3)cc2n1`, the RP-LC retention time was 613 s.
`O=C(NCCN1CCCCC1)C1CCN(c2ccc(-c3ccc(F)cc3)nn2)CC1` showed an RP-LC retention time of 567 s.
Compound `CCOc1cc(-c2nc(C3CC(=O)N(c4ccc(OC)cc4)C3)no2)cc(OCC)c1OCC` (stereo not given) has an RP-LC retention time of 1040 s.
In the case of `O=C(c1ccccc1C(F)(F)F)N1CCN=C1SCc1cccnc1`, the RP-LC retention time is reported as 590 s.
